Source: ChEMBL document CHEMBL1201862, “PubChem BioAssay data set” (2004)
Activity calls are given as the source filed them.

Experiments:
Paired box protein Pax-8 = Paired box protein Pax-8 (Homo sapiens, UniProt Q06710); test: inhibitors of PAX8-driven TPO luciferase reporter, dose response, RMG-I cells, cherry-pick (AID 687027); type: functional, cell-based;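 also: luciferase reporter driven by Pax8 target thyroperoxidase promoter measured by SteadyGlo luminescence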
[1] = IGROV1 ovarian cancer cell cytotoxicity, dose response, PAX8 inhibitor project, plate reader, dry powder samples (AID 743043); type: functional, cell-based; conditions: IGROV-1
[2] = non-specific cell cytotoxicity, dose response, cytotoxicity control for PAX8 inhibitor project, plate reader, dry powder samples (AID 743021); type: functional, cell-based
[3] = cytotoxicity in OVCAR8 ovarian cancer cells, dose response, PAX8 project, cell-based, plate reader, dry powder samples (AID 743197); type: functional; conditions: OVCAR-8
[4] = P. falciparum Dd2 growth inhibitors, dose response, SYBR Green, cherry-picked samples (AID 1159567); type: functional, cell-based
[5] = HepG2 cell cytotoxicity, dose response, cytotoxicity control, cherry-picked samples (AID 1159577); type: functional, cell-based
[6] = biological target: T1, RNA-binding protein pos-1 (Caenorhabditis elegans, UniProt G5EF15); test: inhibitors of POS-1/mex-3 RNA binding, dose response, biochemical, fluorescence polarization (AID 1964);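 also: purified POS-1 fused to maltose binding protein made in E. coli; potency of compounds blocking POS-1 binding to fluorescent RNA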
T1 sequence (G5EF15 whole entry): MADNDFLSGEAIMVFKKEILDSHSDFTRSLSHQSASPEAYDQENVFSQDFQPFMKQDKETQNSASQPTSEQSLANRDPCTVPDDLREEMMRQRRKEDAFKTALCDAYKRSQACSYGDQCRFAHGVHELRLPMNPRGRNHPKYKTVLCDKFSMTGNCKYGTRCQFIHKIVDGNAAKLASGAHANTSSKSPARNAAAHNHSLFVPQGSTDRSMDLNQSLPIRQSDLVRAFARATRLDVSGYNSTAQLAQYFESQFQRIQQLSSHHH

[7] = biological target: T2, Zinc finger protein mex-5 (Caenorhabditis elegans, UniProt Q9XUB2); test: MEX-5/TCR-2 RNA interaction inhibitors, dose response, biochemical, C. elegans, fluorescence polarization (AID 1960)
T2 sequence (Q9XUB2 whole entry): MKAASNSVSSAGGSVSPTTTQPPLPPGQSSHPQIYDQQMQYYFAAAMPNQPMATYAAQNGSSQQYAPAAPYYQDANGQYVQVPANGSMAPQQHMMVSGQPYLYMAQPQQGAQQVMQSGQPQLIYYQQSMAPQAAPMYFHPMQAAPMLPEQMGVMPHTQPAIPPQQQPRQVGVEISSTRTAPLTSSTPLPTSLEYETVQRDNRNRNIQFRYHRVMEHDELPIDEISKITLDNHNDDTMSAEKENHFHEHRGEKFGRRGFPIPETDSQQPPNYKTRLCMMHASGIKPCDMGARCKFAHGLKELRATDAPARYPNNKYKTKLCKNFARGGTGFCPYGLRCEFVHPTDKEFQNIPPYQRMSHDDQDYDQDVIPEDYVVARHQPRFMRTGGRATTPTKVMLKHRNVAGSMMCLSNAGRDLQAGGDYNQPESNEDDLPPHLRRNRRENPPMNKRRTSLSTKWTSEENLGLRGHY

[8] = biological target: T3, Replicative DNA helicase DnaB (Mycobacterium tuberculosis, UniProt P9WMR3); test: DnaB intein splicing inhibitors, dose response, biochemical, cell-free fluorescence (AID 449749); type: functional
T3 sequence (P9WMR3 whole entry): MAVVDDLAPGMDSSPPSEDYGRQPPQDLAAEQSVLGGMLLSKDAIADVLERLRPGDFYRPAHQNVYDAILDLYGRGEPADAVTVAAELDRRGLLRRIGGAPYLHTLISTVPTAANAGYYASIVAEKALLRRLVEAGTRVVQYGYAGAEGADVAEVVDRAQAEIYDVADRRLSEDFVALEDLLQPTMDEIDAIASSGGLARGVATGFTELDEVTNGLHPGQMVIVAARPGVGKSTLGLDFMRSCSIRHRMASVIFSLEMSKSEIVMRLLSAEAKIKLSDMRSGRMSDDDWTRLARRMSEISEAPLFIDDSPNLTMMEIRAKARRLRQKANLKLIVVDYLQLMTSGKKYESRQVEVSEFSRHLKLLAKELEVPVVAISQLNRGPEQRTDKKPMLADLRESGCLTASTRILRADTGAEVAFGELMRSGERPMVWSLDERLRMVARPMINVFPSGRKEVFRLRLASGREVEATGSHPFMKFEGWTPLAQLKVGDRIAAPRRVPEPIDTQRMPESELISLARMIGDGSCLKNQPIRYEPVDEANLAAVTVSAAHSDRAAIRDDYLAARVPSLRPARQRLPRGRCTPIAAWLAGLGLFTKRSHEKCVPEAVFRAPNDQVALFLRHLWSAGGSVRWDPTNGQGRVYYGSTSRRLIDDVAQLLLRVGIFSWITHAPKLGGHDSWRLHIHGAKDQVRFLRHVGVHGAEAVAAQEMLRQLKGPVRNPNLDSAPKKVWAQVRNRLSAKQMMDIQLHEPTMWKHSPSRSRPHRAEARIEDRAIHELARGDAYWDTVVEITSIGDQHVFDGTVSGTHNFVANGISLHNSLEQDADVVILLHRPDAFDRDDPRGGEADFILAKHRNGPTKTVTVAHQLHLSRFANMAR

Protein RecA = biological target: T4, Protein RecA (Mycobacterium tuberculosis, UniProt P9WHJ3); test: Fluorescence Cell-Free Homogeneous Dose Retest to Identify Inhibitors of RecA-Intein Splicing Activity. [Related pubchem assays (depositor defined):AID2097, AID2223, AID489010, AID492950]; type: functional
T4 sequence (P9WHJ3 whole entry): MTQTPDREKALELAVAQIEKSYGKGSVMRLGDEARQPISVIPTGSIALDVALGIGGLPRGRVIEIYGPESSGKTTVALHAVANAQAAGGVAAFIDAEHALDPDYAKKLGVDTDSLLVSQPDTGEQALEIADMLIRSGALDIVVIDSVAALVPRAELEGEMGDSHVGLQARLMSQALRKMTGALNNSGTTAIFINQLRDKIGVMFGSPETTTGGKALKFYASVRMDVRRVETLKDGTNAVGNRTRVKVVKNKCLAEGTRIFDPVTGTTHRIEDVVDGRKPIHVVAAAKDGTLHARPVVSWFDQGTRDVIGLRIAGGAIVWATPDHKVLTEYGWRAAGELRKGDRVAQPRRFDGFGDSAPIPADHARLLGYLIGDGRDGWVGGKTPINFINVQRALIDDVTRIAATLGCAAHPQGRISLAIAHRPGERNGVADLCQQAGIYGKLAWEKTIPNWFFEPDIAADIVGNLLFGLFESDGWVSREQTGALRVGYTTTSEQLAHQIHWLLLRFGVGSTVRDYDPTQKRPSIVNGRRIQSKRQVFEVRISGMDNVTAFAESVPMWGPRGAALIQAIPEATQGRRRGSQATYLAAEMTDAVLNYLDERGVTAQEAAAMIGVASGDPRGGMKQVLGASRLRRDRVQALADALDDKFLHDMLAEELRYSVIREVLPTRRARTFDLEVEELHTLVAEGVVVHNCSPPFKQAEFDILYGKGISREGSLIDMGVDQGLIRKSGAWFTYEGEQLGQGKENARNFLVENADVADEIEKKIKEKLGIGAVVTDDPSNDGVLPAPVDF

[9] = biological target: Histone-lysine N-methyltransferase NSD2 (Homo sapiens, UniProt O96028); type: biochemical
[10] = NIH:OVCAR-3 ovarian cancer cell cytotoxicity, dose response, PAX8 inhibitor project, plate reader, dry powder samples (AID 743044); type: functional, cell-based

Paired box protein Pax-8, sequence (Q06710 whole entry): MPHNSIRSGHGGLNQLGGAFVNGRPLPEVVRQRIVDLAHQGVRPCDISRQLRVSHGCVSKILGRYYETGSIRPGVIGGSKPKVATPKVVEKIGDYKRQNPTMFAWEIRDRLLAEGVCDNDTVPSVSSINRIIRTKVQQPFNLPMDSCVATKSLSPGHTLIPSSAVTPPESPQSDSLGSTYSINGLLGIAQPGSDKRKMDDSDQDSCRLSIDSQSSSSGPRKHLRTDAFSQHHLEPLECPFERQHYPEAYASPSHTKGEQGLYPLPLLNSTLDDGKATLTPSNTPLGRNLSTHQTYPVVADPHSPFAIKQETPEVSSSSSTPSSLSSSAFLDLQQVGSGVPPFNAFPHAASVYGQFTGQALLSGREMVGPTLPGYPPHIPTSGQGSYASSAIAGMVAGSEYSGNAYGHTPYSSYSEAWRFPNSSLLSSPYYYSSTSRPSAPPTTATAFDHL
Histone-lysine N-methyltransferase NSD2, sequence (O96028 whole entry): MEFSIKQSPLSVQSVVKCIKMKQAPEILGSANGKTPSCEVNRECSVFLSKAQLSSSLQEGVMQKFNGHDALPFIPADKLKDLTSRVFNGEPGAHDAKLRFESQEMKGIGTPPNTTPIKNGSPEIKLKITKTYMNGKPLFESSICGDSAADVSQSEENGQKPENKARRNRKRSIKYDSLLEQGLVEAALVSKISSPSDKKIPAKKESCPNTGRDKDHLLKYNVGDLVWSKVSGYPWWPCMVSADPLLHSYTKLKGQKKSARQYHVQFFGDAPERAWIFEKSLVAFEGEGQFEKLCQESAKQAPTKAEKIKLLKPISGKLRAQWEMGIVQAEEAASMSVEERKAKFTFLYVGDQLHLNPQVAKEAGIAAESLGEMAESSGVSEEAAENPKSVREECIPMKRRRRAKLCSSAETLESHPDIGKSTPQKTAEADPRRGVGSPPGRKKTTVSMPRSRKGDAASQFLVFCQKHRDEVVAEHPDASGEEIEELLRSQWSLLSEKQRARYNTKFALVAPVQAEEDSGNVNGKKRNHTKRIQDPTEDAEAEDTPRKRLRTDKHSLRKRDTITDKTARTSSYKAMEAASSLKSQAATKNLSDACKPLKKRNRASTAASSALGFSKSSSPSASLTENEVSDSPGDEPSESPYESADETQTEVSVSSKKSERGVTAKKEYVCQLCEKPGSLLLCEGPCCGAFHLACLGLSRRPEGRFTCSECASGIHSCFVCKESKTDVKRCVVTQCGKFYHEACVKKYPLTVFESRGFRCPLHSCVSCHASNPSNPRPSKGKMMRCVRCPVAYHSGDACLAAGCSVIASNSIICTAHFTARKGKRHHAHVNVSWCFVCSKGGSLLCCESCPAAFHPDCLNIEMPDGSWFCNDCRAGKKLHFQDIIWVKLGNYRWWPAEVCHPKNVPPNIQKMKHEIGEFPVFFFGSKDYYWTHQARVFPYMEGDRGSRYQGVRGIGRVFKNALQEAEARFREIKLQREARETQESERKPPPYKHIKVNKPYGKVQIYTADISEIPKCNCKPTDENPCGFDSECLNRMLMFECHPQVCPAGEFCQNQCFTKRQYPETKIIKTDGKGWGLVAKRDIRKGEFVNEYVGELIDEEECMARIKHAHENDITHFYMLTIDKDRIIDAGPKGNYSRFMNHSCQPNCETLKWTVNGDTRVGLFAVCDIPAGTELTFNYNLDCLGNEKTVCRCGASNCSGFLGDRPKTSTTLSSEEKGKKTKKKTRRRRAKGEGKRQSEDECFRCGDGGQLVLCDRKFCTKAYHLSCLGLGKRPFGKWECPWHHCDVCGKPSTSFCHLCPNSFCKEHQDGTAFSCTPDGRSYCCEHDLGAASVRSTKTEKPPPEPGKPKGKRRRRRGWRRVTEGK

With `O=C1CN(S(=O)(=O)Cc2ccccc2)C[C@@H]2[C@@H](c3ccc(C#Cc4ccc(F)cc4)cc3)[C@@H](CO)N12` as the compound, how does the AC50 (Paired box protein Pax-8) read?
Its AC50 is 4.64 µM (active).

What about the AC50 [1] of the same compound?
The AC50 was 17.4 µM (active).

And the AC50 [2]?
Its AC50 is 18.5 µM (active).

What about the AC50 [3] of the same compound?
The AC50 was 35.9 µM (active).

And the AC50 [4]?
Its AC50 is 5.57 µM (active).

What about the AC50 [5] of the same compound?
The AC50 was 9.1 µM (active).

Which EC50 [6] does the source give for `CC1=NN(c2ccc(C(=O)O)c(N)c2)C(=O)C1` here?
The EC50 was 85.5 µM (active).

What about the EC50 [7] of the same compound?
Its EC50 is 38.3 µM (active).

And the AC50 [8]?
The AC50 was 3.01 µM (active).

What about the EC50 (Protein RecA) of the same compound?
Its EC50 is 1.98 µM (active).

And the AC50 [9]?
The AC50 was > 20 µM (inactive).

For `COc1ccc(S(=O)(=O)Nc2ccc3c(c2)C(=O)N([C@@H](C)CO)C[C@H](C)[C@@H](CN(C)C(=O)Nc2ccc(C(F)(F)F)cc2)OCCCC[C@@H](C)O3)cc1`, which AC50 (Paired box protein Pax-8) is on record?
The AC50 was 9.96 µM (active).

What about the AC50 [10] of the same compound?
Its AC50 is 20.5 µM (active).

What about the AC50 [1] of the same compound?
Its AC50 is 41.5 µM (active).

And the AC50 [3]?
Its AC50 is 29.6 µM (active).
